Experiments:
[1] = target: KRAS G12D (Homo sapiens, UniProt P01116, G12D); assay: GDP-GTP exchange assay (bodipy-GDP/GppNHp, SOS1), KRAS G12D; assay type: biochemical; settings: KRAS_G12D exchange assay IC50; 4 h pre-incubation; value for the most potent isomer quoted
Description: (§1) The inhibitor potency of the exemplified compounds was determined in a fluorescence based guanine nucleotide exchange assay, which measures the exchange of bodipy-GDP (fluorescently labeled GDP) for GppNHp (Non-hydrolyzable GTP analog) to generate the active state of KRAS in the presence of SOS1 (guanine nucleotide exchange factor). Inhibitors were serially diluted in DMSO and a volume of 0.1 μL was transferred to the wells of a black low volume 384-well plate. 5 μL/well volume of bodipy-loaded KRAS G12D diluted to […] in assay buffer (25 mM Hepes pH 7.5, 50 mM NaCl, 10 mM mgCl2 and 0.01% Brij-35) was added to the plate and pre-incubated with inhibitor for 4 h at ambient temperature. Appropriate controls (enzyme with no inhibitor or with a G12D inhibitor) were included on the plate. The exchange was initiated by the addition of a 5 μL/well volume containing 1 mM GppNHp and 300 nM SOS1 in assay buffer. The 10 μL/well reaction concentration of the bodipy-loaded KRAS G12D, GppNHp, and SOS1 were 2.5 nM, 500 uM, and 150 nM, respectively. The reaction plates were incubated at ambient temperature for 2 h, a time estimated for complete GDP-GTP exchange in the absence of inhibitor. For the KRAS G12V mutant, similar guanine nucleotide exchange assays were used with 2.5 nM as final concentration for the bodipy loaded KRAS proteins and 3 h incubation after adding GppNHp-SOS1 mixture. A cyclic peptide described to selectively bind G12D mutant (Sakamoto et al., BBRC 484.3 (2017), 605-611) or internal compounds with confirmed binding were used as positive controls in the assay plates. Fluorescence intensities were measured on a PheraStar plate reader instrument (BMG Labtech) with excitation at 485 nm and emission at 520 nm.
(§2) Either GraphPad prism or Genedata Screener SmartFit was used to analyze the data. The IC50 values were derived by fitting the data to a four parameter logistic equation producing a sigmoidal dose-response curve with a variable Hill coefficient.
(§3) The symbol “t” indicates IC50≤100 nM, “††” indicates IC50>100 nM but ≤1 μM; and “†††” indicates IC50 is >1 μM but ≤5 μM, “††††” indicates IC50 is >5 μM but ≤10 μM. “NA” indicates IC50 not available.

[2] = target: KRAS G12V (Homo sapiens, UniProt P01116, G12V); assay: GDP-GTP exchange assay (bodipy-GDP/GppNHp, SOS1), KRAS G12V; assay type: biochemical; settings: KRAS_G12V exchange assay IC50; value for the most potent isomer quoted
Chain of KRAS G12V (P01116 1-188 isoform P01116-2 G12V): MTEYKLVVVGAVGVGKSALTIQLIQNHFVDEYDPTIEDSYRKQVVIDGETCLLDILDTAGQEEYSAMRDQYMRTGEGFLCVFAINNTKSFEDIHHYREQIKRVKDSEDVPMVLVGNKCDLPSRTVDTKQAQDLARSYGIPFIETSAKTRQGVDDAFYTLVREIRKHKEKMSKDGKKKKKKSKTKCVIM
Description: as §1, §2, §3

[3] = system: Caco-2 cells; assay: Caco2 assay (permeability, A-B); assay type: in vitro ADME; settings: Papp absorptive direction (A-B), test compound 50 μM, 120 minutes
Description: Caco-2 cells are grown at 37° C. in an atmosphere of 5% CO2 in DMEM growth medium supplemented with 10% (v/v) fetal bovine serum, 1% (v/v) nonessential amino acids, penicillin (100 U/mL), and streptomycin (100 μg/mL). Confluent cell monolayers are subcultured every 7 days or 4 days for Caco-2 by treatment with 0.05% trypsin containing […]. Caco-2 cells are seeded in 96-well Transwell plates. The seeding density for Caco-2 cells is 14,000 cells/well. DMEM growth medium is replaced every other day after seeding. Cell monolayers are used for transport assays between 22 and 25 days for Caco-2 cells.
Cell culture medium is removed and replaced with HBSS. To measure the TEER, the HBSS is added into the donor compartment (apical side) and receiver compartment (basolateral side). The TEER is measured by using a REMS Autosampler to ensure the integrity of the cell monolayers. Caco-2 cell monolayers with TEER values≥300 Ω·cm^2 are used for transport experiments. To determine the Papp in the absorptive direction (A-B), solution of test compound (50 μM) in HBSS is added to the donor compartment (apical side), while HBSS solution with 4% BSA is added to the receiver compartment (basolateral side). The apical volume was 0.075 mL, and the basolateral volume is 0.25 mL. The incubation period is 120 minutes at 37° C. in an atmosphere of 5% CO2. At the end of the incubation period, samples from the donor and receiver sides are removed and an equal volume of acetonitrile is added for protein precipitation. The supernatants are collected after centrifugation (3000 rpm, Allegra X-14R Centrifuge from Beckman Coulter, Indianapolis, IN) for LCMS analysis. The permeability value is determined according to the equation: […]
where the flux rate (F, mass/time) is calculated from the slope of cumulative amounts of compound of interest on the receiver side, SA is the surface area of the cell membrane, VD is the donor volume, and MD is the initial amount of the solution in the donor chamber.
The symbol “+” indicates a Caco-2 value of […], “++” indicates a Caco-2 value of >0.5 but ≤1; and “+++” indicates a Caco-2 value of >1. “NA” indicates IC50 not available.

Chain of KRAS G12D (P01116 1-188 isoform P01116-2 G12D): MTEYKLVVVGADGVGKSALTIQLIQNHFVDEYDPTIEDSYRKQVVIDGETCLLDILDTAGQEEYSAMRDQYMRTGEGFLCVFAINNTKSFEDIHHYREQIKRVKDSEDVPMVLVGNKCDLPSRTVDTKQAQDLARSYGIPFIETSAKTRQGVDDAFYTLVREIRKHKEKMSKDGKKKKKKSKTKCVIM

Row | G12D_exchange [1] | G12V_exchange [2] | Structure (SMILES) | Caco-2 [3]
1 | † | † | Cc1nc2c(F)c(-c3cccc(Cl)c3Cl)c(CCC#N)cc2c2c1cc([C@@H](C)N1CCCN(c3ccncc3)C1=O)n2[C@H]1[C@H]2CN[C@@H]1C2 (single isomer, unassigned) [Example 1] | +++ (“+++” indicates a Caco-2 value of >1)
2 | † | † | Cc1nc2c(F)c(-c3cccc(Cl)c3Cl)c(CCC#N)cc2c2c1cc([C@@H](C)N1CCCN(c3ccncc3F)C1=O)n2[C@H]1[C@H]2CN[C@@H]1C2 (single isomer, unassigned) [Example 5] | +++ (“+++” indicates a Caco-2 value of >1)
3 | † | † | Cc1nc2c(F)c(-c3cccc(Cl)c3Cl)c(CCC#N)cc2c2c1cc([C@@H](C)N1CCCN(c3ccnc(F)c3)C1=O)n2[C@H]1[C@H]2CN[C@@H]1C2 (single isomer, unassigned) [Example 6] | +++ (“+++” indicates a Caco-2 value of >1)
4 | † | † | Cc1nc2c(F)c(-c3cccc(Cl)c3Cl)c(CCC#N)cc2c2c1cc([C@@H](C)N1CCCN(c3ccc(F)cn3)C1=O)n2[C@H]1[C@H]2CN[C@@H]1C2 (single isomer, unassigned) [Example 7] | +++ (“+++” indicates a Caco-2 value of >1)

More lines, now with the values behind:

Row | Structure (SMILES) | G12D_exchange [1] | G12V_exchange [2] | Caco-2 [3]
5 | Cc1nc2c(F)c(-c3cccc(Cl)c3Cl)c(CCC#N)cc2c2c1cc([C@@H](C)N1CCCN(c3ccccc3)C1=O)n2[C@H]1[C@H]2CN[C@@H]1C2 (single isomer, unassigned) [Example 2] | † | † | +++ (“+++” indicates a Caco-2 value of >1)
6 | Cc1nc2c(F)c(-c3cccc(Cl)c3Cl)c(CCC#N)cc2c2c1cc([C@@H](C)N1CCCN(c3ccc(F)cc3)C1=O)n2[C@H]1[C@H]2CN[C@@H]1C2 (single isomer, unassigned) [Example 3] | † | † | +++ (“+++” indicates a Caco-2 value of >1)
7 | Cc1nc2c(F)c(-c3cccc(Cl)c3Cl)c(CCC#N)cc2c2c1cc([C@@H](C)N1CCCN(c3ccccn3)C1=O)n2[C@H]1[C@H]2CN[C@@H]1C2 (single isomer, unassigned) [Example 4] | † | † | + (“+” indicates a Caco-2 value of 50.5)
8 | CC(O)c1nc2c(F)c(-c3cccc(Cl)c3Cl)c(CCC#N)cc2c2c1cc([C@@H](C)N1CCCN(c3ccncc3)C1=O)n2[C@H]1[C@H]2CN[C@@H]1C2 (single isomer, unassigned) [Example 14] | † | † | + (“+” indicates a Caco-2 value of 50.5)
9 | Cc1c(Cl)cc(O)cc1-c1c(CCC#N)cc2c(nc(C)c3cc([C@@H](C)N4CCCN(c5ccncc5)C4=O)n([C@H]4[C@H]5CN[C@@H]4C5)c32)c1F [Example 15, 3-(1-((1R,4R,5S)-2-azabicyclo[2.1.1]hexan-5-yl)-7-(3-chloro-5-hydroxy-2-methylphenyl)-6-fluoro-4-methyl-2-((R)-1-(2-oxo-3-(pyridin-4-yl)tetrahydropyrimidin-1(2H)-yl)ethyl)-1H-pyrrolo[3,2-c]quinolin-8-yl)propanenitrile] | † | † | + (“+” indicates a Caco-2 value of 50.5)

Reference: patent US20240358702A1, “CYCLIC UREA KRAS INHIBITORS” (INCYTE CORPORATION, priority 2023, published 2024)
